Test results taken from patent publication US20050250837A1, “Use of C-Raf inhibitors for the treatment of neurodegenerative diseases” (priority 2002, published 2005).

Columns and labels:
p38 MAP kinase = p38 MAP kinase (Homo sapiens, UniProt Q16539); details: Lackey et al., 2000; cited from earlier work
NF-κB = NF-κB DNA-binding activity, gel mobility shift assay; type: cell-based, rat; details: LK + 1 uM GW5074, 6 hours
Description: Another molecule known to be important for neuronal survival is NF-κB. Although the precise mechanism has not been elucidated, the Raf is known to activate NF-κB in normeuronal cells via a MEK-ERK-independent mechanism (Foo and Nolan, 1999; Pearson et al., 2000). […] Viability was quantified 24 hours later and expressed as percentage of viability in HK.
One potential mediator of MEK-ERK-independent B-Raf signaling is NF-κB.
Nuclei from neuronal cultures were resuspended in buffer containing 20 mM HEPES pH 7.6, 50 mM KCl, 300 mM NaCl, 0.1 mM EDTA, 1 mM DTT, 0.1 mM PMSF, 10% glycerol, 1× protease inhibitor cocktail and extracted on ice for 30 min, followed by micro-centrifugation at 14,000 rpm for 10 min. The supernatants were collected as nuclear extracts. Concentrations of these nuclear extracts were determined by the Bradford method using reagents from Bio-Rad. Ten μg of each nuclear extract sample was incubated with 0.1 pmol of ^32P-labeled double-stranded KB binding oligonucleotide (5′-[…]-3′) identified as SEQ ID NO:1, or SP1 binding oligonucleotide (5′-[…]-3′) identified as SEQ ID NO:2, in buffer containing 1 μg of poly (d1-dC), 1 μg of BSA, 10 mM HEPES pH7.6, 0.5 mM DTT, 0.1 mM EDTA, 60 mM KCl, 0.2 mM PMSF, 5 mM MgCl2, and 12% glycerol at room temperature for 30 min. Samples were analyzed by 5% native polyacrylamide gel electrophoresis (PAGE) followed by autoradiography.

Akt = Akt phosphorylation (Ser473) in neuronal cultures, Western blot; type: cell-based, rat
Description: The best-studied anti-apoptotic pathway in neurons is the PI-3 kinase—Akt signaling pathway (D'Mello et al., 1997; Dudek et al., 1997; Miller et al, 1997a). IGF-1, a potent survival-promotic factor for granule neurons mediates its effect by activating the PI-3 kinase-Akt pathway (Datta et al., 1997; Dudek et al., 1997; D'Mello et al., 1998). […] Switching cerebellar granule neurons from serum-containing HK medium in which they are cultured and allowed to mature, to serum-free LK or HK medium, causes a rapid downregulation of Akt phosphorylation and activity, which can be prevented by IGF-1 (Kumari et al., 2001). […] The same blot was reprobed with an antibody against phospho-Gskβ. Also loaded on the gel were lysates from untreated cultures (maintained in medium containing serum and high K+) and a culture treated for 1 hour with 25 ng/ml IGF-1. […] GSK3βis a proapoptotic molecule that is activated during apoptosis in many neuronal and normeuronal systems. Under survival promoting conditions GSK3β is kept inactivated by phosphorylation, a modification that can be induced by Akt. […] Another proapoptotic molecule that is phosphorylated and inactivated by Akt is the transcription factor, Forkhead (Linseman et al., 2002). […] Switching of neurons to LK medium leads to a rapid downregulation of Akt activity within 2 hours.
For whole-cell lysates, the culture medium was discarded, the neurons washed twice with ice-cold phosphate-buffered saline (PBS), and lysed in lysis buffer (1% Triton, 20 mM Tris-HCl (pH 7.5), 150 mM NaCl, 1 mM Na2EDTA, 1 mM EGTA, 2.5 mM sodium pyrophosphate, 1 mM beta-glycerophosphate, 1 mM Na3VO4, 1 μg/ml leupeptin and 1× protease inhibitor mixture). Protein concentrations were measured using a Bradford protein assay kit (Bio-Rad), and equivalent amounts of protein were mixed with 6×SDS-PAGE sample buffer. […] After staining with Ponceau S to verify uniformity of protein loads/transfer, the membranes were analyzed for immunoreactivity. […]

c-jun = c-jun phosphorylation (Ser63) and total c-jun, Western blot; type: cell-based, rat; details: LK + 1 uM GW5074, 1 and 3 hours
Description: In granule neurons, phosphorylation of c-jun occurs within 1 hour of LK treatment (Ham et al., 1995; Watson et al. 1998). […] The same blot was reprobed with an antibody against total c-jun (lower panel).
For whole-cell lysates, the culture medium was discarded, the neurons washed twice with ice-cold phosphate-buffered saline (PBS), and lysed in lysis buffer (1% Triton, 20 mM Tris-HCl (pH 7.5), 150 mM NaCl, 1 mM Na2EDTA, 1 mM EGTA, 2.5 mM sodium pyrophosphate, 1 mM beta-glycerophosphate, 1 mM Na3VO4, 1 μg/ml leupeptin and 1× protease inhibitor mixture). Protein concentrations were measured using a Bradford protein assay kit (Bio-Rad), and equivalent amounts of protein were mixed with 6×SDS-PAGE sample buffer. Following heating at 95° C. for 5 min, proteins were subjected to SDS-polyacrylamide gel electrophoresis and transferred electrophoretically to polyvinylidene difluoride membrane (PVDF; Bio Rad). After staining with Ponceau S to verify uniformity of protein loads/transfer, the membranes were analyzed for immunoreactivity. Incubation with primary antibodies was performed overnight at 4° C. and with secondary antibodies for 1 h at room temperature. Immunoreactivity was developed by enhanced chemiluminescence (ECL; Amersham) and visualized by autoradiography. All antibodies were from Cell Signaling.

[1] = tested on: cerebellar granule neurons; experiment: Apoptosis of neurons transfected with dominant-negative B-Raf or LacZ in LK plus GW5074; type: cell-based, rat; details: LK + 1 uM GW5074, 24 hours
Description: A dominant-negative […] expression vector, pSRa GST B-Raf S728A (full length human B-Raf with Serine to Alanine mutation at position 728) was gifted to us by Dr. Angus M. MacNicol, University of Arkansas for Medical Sciences, Little Rock, Ark. Neuronal cultures were transfected with CMV-LacZ or the dominant-negative B-Raf construct using the calcium phosphate method 5 days after plating of the cultures. […] The proportion of transfected neurons that were apoptotic was quantified 24 hours later.

Chain of p38 MAP kinase (Q16539 whole entry): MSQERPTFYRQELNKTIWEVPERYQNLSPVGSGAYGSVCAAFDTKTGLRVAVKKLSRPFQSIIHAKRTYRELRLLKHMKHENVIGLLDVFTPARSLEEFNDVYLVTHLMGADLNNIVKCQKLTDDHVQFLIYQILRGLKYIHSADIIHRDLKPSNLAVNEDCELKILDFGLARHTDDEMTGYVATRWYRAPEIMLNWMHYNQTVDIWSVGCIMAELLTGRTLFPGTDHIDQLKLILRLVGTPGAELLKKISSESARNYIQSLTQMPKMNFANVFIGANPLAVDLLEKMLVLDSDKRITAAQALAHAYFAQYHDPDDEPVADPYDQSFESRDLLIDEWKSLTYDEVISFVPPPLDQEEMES

O=C1Nc2ccc(I)cc2C1=Cc1cc(Br)c(O)c(Br)c1 [GW5074, 5-Iodo-3-[(3,5-dibromo-4-hydroxyphenyl)methylene]-2-indolinone]
effect on activity of p38 MAP kinase (p38 MAP kinase): no effect | NF-κB binding activity in LK (NF-κB): downregulation of NF-κB binding activity is prevented | Akt phosphorylation after LK treatment (Akt; LK + 1 uM GW5074, 1 and 3 hours): delays the downregulation of Akt phosphorylation | de novo Akt activation after downregulation in LK (Akt; added to cultures already switched to LK): does not lead to Akt activation | LK-induced c-jun phosphorylation and synthesis (c-jun): prevents LK-induced c-jun phosphorylation and its increased synthesis | death of neurons ([1]; LacZ control): less than 10% | death of infected neurons ([1]; dominant-negative B-Raf, data not shown): 80%
